Reference: ChEMBL document CHEMBL4765237, “Structural optimization and structure-activity relationship studies of N-phenyl-7,8-dihydro-6H-pyrimido[5,4-b][1,4]oxazin-4-amine derivatives as a new class of inhibitors of RET and its drug resistance mutants” (Eur J Med Chem, 2018)
Active and inactive are the calls of the source. No cut-off for these calls is given here.

What was measured:
[1] = AUC (0 to t) in Sprague-Dawley rat at 10 mg/kg, po measured upto 24 hrs by LC-MS/MS analysis; assay type: ADME, organism-based; design: route oral, dose 10 mg/kg, time <=24; settings: in vivo
[2] = Cmax in Sprague-Dawley rat at 10 mg/kg, po measured upto 24 hrs by LC-MS/MS analysis; assay type: ADME, organism-based; design: route oral, dose 10 mg/kg, time <=24; settings: in vivo
[3] = Growth inhibition of […] BaF3 cells harboring BCR abl mutant incubated for 3 days by MTT assay; assay type: functional; settings: BaF3, 72 h; time 3 day
[4] = Growth inhibition of human HTH-83 cells incubated for 3 days by MTT assay; assay type: functional; settings: HTh83, 72 h, time 3 day
[5] = Growth inhibition of human C643 cells incubated for 3 days by MTT assay; assay type: functional; settings: C643, 72 h, time 3 day
[6] = tested on: SGC-7901; assay: Growth inhibition of human SGC-7901 cells incubated for 3 days by MTT assay; assay type: functional; settings: SGC-7901, 72 h, time 3 day
[7] = tested on: MGC-803; assay: Growth inhibition of human MGC-803 cells incubated for 3 days by MTT assay; assay type: functional; settings: MGC-803, 72 h, time 3 day
[8] = tested on: HepG2; assay: Growth inhibition of human HepG2 cells incubated for 3 days by MTT assay; assay type: functional; settings: HepG2, 72 h, time 3 day
[9] = tested on: BaF3; assay type: functional; settings: Mus musculus, BaF3, 72 h; time 3 day
[10] = tested on: BaF3; assay: Growth inhibition of mouse BaF3 cells harboring RET V804M mutant incubated for 3 days by MTT assay; assay type: functional; settings: BaF3, 72 h, time 3 day
[11] = Growth inhibition of human TT cells incubated for 10 days by MTT assay; assay type: functional; settings: 240 h, time 10 day
[12] = tested on: Ramos; assay: Growth inhibition of human Ramos cells incubated for 3 days by MTT assay; assay type: functional; settings: 72 h, time 3 day
[13] = tested on: DU-145; assay: Growth inhibition of human DU-145 cells incubated for 3 days by MTT assay; assay type: functional; settings: DU-145, 72 h, time 3 day
[14] = Growth inhibition of mouse L929 cells incubated for 3 days by MTT assay; assay type: cell-based; settings: time 3 day
[15] = tested on: L02; assay: Growth inhibition of human L02 cells incubated for 3 days by MTT assay; assay type: functional; settings: L02, 72 h, time 3 day
[16] = Inhibition of colony formation in […] NIH3T3 cells at > 1 uM incubated for 10 days by crystal violet assay relative to control; assay type: functional; settings: dose microM >1; time 10 day
[17] = target: RAF proto-oncogene serine/threonine-protein kinase (Homo sapiens, UniProt P04049); assay: Inhibition of recombinant human C-Raf (306 to end residues) poly(Glu, Tyr) 4:1 as substrate incubated 40 mins in presence of [gamma-33ATP] by scintillation counting based radiometry assay
[18] = target: Tyrosine-protein kinase HCK (Homo sapiens, UniProt P08631); assay: Inhibition of human HCK (230 to 497 residues) using […] as substrate after 40 mins by [gamma-33ATP] radiometric assay
[19] = target: Tyrosine-protein kinase Mer (Homo sapiens, UniProt Q12866); assay: Inhibition of recombinant human MER (557 to 882 residues) using KKLNRTLSFAEPG as substrate incubated for 40 mins in presence of [gamma-33ATP by scintillation counting based radiometry assay
Chain of Tyrosine-protein kinase Mer (Q12866 whole entry, the tested form may be a part): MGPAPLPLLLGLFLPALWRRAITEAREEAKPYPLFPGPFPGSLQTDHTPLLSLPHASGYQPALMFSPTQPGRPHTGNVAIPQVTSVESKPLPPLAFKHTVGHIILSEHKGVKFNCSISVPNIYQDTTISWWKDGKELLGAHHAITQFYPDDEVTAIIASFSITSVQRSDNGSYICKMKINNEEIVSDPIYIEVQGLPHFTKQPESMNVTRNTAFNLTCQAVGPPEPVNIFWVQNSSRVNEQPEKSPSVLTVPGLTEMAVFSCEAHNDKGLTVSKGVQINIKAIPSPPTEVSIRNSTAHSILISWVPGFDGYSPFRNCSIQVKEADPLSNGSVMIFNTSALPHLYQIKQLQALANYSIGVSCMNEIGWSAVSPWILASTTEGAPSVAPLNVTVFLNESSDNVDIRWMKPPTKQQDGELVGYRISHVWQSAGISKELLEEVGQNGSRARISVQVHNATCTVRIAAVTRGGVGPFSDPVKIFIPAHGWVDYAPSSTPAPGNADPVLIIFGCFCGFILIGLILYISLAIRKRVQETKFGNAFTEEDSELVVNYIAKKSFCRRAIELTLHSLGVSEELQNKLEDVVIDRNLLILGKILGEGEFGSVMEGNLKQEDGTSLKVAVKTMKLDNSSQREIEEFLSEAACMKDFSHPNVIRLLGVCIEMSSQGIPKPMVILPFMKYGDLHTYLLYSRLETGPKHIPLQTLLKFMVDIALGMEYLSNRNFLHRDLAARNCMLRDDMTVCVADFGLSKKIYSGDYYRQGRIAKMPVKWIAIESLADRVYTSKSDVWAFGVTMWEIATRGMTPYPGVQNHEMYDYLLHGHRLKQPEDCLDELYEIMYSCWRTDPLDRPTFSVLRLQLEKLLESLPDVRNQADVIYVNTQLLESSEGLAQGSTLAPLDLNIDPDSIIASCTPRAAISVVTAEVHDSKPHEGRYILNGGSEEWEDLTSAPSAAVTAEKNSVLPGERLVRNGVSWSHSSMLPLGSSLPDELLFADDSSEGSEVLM

[20] = target: Mitogen-activated protein kinase kinase kinase kinase 5 (Homo sapiens, UniProt Q9Y4K4); assay: Inhibition of recombinant human MAP4K5 using myelin basic protein as substrate incubated for 40 mins in presence of [gamma-33ATP by scintillation counting based radiometry assay
[21] = target: Mitogen-activated protein kinase 13 (Homo sapiens, UniProt O15264); assay: Inhibition of recombinant human full length SAPK4 using myelin basic protein as substrate incubated for 40 mins in presence of [gamma33P]ATP by scintillation counting based radiometry assay
Chain of Mitogen-activated protein kinase 13 (O15264 whole entry, the tested form may be a part): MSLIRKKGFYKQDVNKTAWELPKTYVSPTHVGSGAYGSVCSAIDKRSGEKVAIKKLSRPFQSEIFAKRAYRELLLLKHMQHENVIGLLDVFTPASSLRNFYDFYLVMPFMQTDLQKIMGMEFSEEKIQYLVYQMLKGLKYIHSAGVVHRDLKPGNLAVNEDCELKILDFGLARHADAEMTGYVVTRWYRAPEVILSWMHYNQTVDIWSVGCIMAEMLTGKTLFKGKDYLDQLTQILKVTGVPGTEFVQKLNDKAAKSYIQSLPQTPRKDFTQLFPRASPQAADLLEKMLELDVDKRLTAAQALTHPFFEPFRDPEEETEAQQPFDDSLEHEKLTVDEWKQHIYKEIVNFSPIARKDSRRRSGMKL

[22] = target: Serine/threonine-protein kinase TAO2 (Homo sapiens, UniProt Q9UL54); assay: Inhibition of recombinant human TAO2 (1 to 320 residues) using myelin basic protein as substrate incubated for 40 mins in presence of [gamma33P]ATP by scintillation counting based radiometry assay
[23] = target: Serine/threonine-protein kinase WNK3 (Homo sapiens, UniProt Q9BYP7); assay: Inhibition of recombinant human WNK3 (1 to 434 residues) using myelin basic protein as substrate incubated for 40 mins in presence of [gamma33P]ATP by scintillation counting based radiometry assay
[24] = target: Tyrosine-protein kinase receptor UFO (Homo sapiens, UniProt P30530); assay: Inhibition of recombinant human Axl (473 to end residues) using KKSRGDYMTMQIG as substrate incubated for 40 mins in presence of [gamma-33ATP] by scintillation counting based radiometry assay
Chain of Tyrosine-protein kinase receptor UFO (P30530 whole entry): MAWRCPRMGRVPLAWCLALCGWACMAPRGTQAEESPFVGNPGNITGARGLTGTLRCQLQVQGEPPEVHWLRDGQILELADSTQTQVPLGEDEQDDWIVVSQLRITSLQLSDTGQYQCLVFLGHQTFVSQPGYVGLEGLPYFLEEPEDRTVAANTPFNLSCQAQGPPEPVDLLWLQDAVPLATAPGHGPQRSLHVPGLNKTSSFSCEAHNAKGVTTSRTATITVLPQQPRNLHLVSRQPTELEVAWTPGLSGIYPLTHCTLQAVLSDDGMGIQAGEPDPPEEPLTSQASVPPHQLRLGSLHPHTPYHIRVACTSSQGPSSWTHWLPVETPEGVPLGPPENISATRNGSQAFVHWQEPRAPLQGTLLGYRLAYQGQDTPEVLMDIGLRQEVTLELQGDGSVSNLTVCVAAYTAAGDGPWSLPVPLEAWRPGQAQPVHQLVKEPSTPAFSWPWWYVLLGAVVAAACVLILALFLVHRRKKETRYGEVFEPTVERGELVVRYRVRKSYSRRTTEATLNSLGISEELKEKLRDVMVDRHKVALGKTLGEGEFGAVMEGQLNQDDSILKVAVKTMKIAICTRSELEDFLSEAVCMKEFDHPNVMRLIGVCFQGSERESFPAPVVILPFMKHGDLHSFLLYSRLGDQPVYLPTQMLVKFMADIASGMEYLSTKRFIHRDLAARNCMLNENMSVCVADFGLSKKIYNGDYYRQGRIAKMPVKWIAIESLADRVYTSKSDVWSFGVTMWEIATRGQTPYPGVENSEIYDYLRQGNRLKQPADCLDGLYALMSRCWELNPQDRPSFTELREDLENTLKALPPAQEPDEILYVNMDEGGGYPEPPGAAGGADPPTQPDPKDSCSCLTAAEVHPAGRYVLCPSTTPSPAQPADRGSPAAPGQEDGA

[25] = target: Ephrin type-A receptor 3 (Homo sapiens, UniProt P29320); assay: Inhibition of recombinant human EphA3 (578 to end residues) using poly(Glu, Tyr) 4:1 as substrate incubated for 40 mins in presence of [gamma-33ATP] by scintillation counting based radiometry assay
[26] = target: Ephrin type-B receptor 2 (Homo sapiens, UniProt P29323); assay: Inhibition of recombinant human EphB2 (560 to end residues) using poly(Glu, Tyr) 4:1 as substrate incubated for 40 mins in presence of [gamma-33ATP] by scintillation counting based radiometry assay
[27] = target: Macrophage colony-stimulating factor 1 receptor (Homo sapiens, UniProt P07333)
[28] = target: Homeodomain-interacting protein kinase 4 (Homo sapiens, UniProt Q8NE63); assay: Inhibition of human HIPK4 using RRRFRPASPLRGPPK as substrate after 40 mins by [gamma-33ATP] radiometric assay
[29] = target: Tyrosine-protein kinase ITK/TSK (Homo sapiens, UniProt Q08881); assay: Inhibition of human ITK (352 to 617 residues) using myelin basic protein as substrate after 40 mins by [gamma-33ATP] radiometric assay
[30] = target: MAP kinase-interacting serine/threonine-protein kinase 2 (Homo sapiens, UniProt Q9HBH9); assay: Inhibition of recombinant human MNK2 using myelin basic protein as substrate incubated for 40 mins in presence of [gamma-33ATP by scintillation counting based radiometry assay
Chain of MAP kinase-interacting serine/threonine-protein kinase 2 (Q9HBH9 whole entry, the tested form may be a part): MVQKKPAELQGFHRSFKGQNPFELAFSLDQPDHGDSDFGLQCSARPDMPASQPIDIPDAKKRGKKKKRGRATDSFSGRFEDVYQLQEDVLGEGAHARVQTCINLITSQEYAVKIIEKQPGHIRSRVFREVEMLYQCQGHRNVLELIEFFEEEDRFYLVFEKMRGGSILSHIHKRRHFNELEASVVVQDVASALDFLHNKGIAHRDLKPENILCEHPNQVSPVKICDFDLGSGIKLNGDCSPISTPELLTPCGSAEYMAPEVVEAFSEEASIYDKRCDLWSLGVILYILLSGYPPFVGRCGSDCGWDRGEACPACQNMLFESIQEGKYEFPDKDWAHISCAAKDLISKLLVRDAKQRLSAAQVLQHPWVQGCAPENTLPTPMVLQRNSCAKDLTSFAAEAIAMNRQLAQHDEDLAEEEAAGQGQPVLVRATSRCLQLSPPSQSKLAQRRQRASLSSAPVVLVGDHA

[31] = target: Mitogen-activated protein kinase kinase kinase 7 (Homo sapiens, UniProt O43318); assay: Inhibition of recombinant human TAK1 (1 to 303 residues) using casein as substrate incubated for 40 mins in presence of [gamma33P]ATP by scintillation counting based radiometry assay
[32] = target: Mitogen-activated protein kinase kinase kinase 20 (Homo sapiens, UniProt Q9NYL2); assay: Inhibition of recombinant full-length human ZAK using MBP as substrate incubated for 40 mins in presence of [gamma33P]ATP by scintillation counting based radiometry assay
Chain of Mitogen-activated protein kinase kinase kinase 20 (Q9NYL2 whole entry): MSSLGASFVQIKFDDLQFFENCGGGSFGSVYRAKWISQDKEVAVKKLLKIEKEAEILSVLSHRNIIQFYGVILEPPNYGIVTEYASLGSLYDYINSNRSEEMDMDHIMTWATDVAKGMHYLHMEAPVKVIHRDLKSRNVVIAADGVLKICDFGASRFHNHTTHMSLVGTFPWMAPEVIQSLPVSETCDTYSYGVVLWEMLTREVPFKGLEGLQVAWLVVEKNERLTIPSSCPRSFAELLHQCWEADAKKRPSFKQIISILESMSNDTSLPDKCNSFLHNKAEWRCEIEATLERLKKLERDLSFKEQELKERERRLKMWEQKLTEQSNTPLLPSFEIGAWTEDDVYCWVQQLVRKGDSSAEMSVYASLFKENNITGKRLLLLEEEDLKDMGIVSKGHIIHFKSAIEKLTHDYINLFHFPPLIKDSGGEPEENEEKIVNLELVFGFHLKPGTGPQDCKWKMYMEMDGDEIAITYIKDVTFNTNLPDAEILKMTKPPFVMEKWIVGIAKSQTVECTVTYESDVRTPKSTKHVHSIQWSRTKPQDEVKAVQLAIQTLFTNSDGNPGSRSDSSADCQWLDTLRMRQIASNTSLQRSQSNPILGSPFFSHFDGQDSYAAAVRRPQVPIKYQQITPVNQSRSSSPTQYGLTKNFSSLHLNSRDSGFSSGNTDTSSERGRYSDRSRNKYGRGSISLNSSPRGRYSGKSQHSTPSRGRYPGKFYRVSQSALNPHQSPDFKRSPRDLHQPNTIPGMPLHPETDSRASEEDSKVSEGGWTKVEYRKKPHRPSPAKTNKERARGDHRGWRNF

[33] = target: Proto-oncogene tyrosine-protein kinase receptor Ret (Homo sapiens, UniProt P07949, V804M)
Chain of Proto-oncogene tyrosine-protein kinase receptor Ret (Homo sapiens, UniProt P07949, V804M) (P07949 29-1114 V804M limits assumed): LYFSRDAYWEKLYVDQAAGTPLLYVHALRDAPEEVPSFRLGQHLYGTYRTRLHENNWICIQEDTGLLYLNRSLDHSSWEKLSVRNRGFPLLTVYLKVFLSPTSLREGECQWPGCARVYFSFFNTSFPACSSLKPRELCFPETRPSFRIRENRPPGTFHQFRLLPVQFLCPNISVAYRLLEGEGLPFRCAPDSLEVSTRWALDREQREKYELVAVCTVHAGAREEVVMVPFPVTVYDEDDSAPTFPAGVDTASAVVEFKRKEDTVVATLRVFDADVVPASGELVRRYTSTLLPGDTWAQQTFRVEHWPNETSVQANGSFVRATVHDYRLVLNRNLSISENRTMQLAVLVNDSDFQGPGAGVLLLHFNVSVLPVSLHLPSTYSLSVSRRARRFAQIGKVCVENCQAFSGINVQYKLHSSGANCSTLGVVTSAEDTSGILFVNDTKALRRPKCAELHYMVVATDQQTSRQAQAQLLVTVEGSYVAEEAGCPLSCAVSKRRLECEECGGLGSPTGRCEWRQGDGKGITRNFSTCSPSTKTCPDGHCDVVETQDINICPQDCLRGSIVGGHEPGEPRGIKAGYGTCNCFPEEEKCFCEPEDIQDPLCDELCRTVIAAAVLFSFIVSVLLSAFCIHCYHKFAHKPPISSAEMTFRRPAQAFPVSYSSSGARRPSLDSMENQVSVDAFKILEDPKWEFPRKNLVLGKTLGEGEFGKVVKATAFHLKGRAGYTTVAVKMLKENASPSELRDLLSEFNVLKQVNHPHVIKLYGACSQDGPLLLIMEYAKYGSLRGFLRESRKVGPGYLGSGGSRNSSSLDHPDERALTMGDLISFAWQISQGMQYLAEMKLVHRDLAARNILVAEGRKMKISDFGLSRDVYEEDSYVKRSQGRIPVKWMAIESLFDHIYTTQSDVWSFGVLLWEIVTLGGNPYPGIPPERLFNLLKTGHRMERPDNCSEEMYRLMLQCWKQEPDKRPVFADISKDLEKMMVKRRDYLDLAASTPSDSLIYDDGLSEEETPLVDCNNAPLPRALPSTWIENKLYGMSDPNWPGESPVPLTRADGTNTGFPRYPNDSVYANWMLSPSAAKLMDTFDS

[34] = target: Proto-oncogene tyrosine-protein kinase receptor Ret (Homo sapiens, UniProt P07949)
[35] = organism: Mus musculus; settings: NOD-SCID, dose 30.0 mg/kg, time 18.0 day
[36] = tested on: NIH3T3; settings: Homo sapiens, dose 10-30 mg/kg, time 18.0 day

## CC(C)(C)c1cc(NC(=O)Nc2ccc(Nc3ncnc4c3OCCCN4)cc2)no1
[1]
  AUC(0-t) at 24 h: 441 µg·h/mL
[2]
  Cmax: 263 µg/mL
[3]
  GI50: > 10000 nM
[4]
  GI50: > 10000 nM
[5]
  GI50: > 10000 nM
[6]
  GI50: 7280 nM
[7]
  GI50: 4310 nM
[8]
  GI50: > 10000 nM
[9]
  GI50: 1130 nM
[10]
  GI50: 930 nM
[11]
  GI50: 65 nM
[12]
  GI50: > 10000 nM
[13]
  GI50: > 10000 nM
[14]
  GI50 at 72 h: > 10000 nM
[15]
  GI50: > 10000 nM
[16]
  inhibition (INH): 100%
[17]
  IC50: 232 nM
[18]
  IC50: 87 nM
[19]
  IC50: 1490 nM
[20]
  IC50: 711 nM
[21]
  IC50: 214 nM
[22]
  IC50: 903 nM
[23]
  IC50: 494 nM
[24]
  IC50: 708 nM
[25]
  IC50: 552 nM
[26]
  IC50: 1090 nM
[27]
  IC50: 9 nM
[28]
  IC50: 127 nM
[29]
  IC50: 338 nM
[30]
  IC50: 136 nM
[31]
  IC50: 484 nM
[32]
  IC50: 19 nM
[33]
  IC50: 15 nM
[34]
  IC50: 10 nM
[35]
  inhibition: Active
[36]
  TGI: Dose-dependent effect
